Experimental data: ChEMBL document CHEMBL1153555, “Molecular mechanism of target recognition by subtilin, a class I lanthionine antibiotic” (Antimicrob Agents Chemother, 2008)
≈ marks a conversion by molar mass, not a printed value.

Columns and labels:
[1] = test system: Lactococcus lactis; assay: Antibacterial activity against Lactococcus lactis MG1614 by disk diffusion assay; type: functional
[2] = Permeability across Micrococcus luteus ATCC 4698 lipid II-containing unilamellar vesicle of 1,2-dioleoyl-sn-gltcero-3-phosphocholine and 1,2-dioleoyl-sn-glycero-3-phosphoglycerol assessed as partial leakage after disintegration of vesicles at lower concentration by carboxyfluorescein leakage assay; type: ADME

MIC [1] [µg/mL] | permeability [2] [%] | SMILES
> 50 | – | C=C1NC(=O)[C@H](CCC(=O)O)NC(=O)[C@H](NC(=O)[C@@H](N)CCCCN)CSC[C@@H](C(=O)N[C@H]2C(=O)N3CCC[C@H]3C(=O)NCC(=O)N[C@H](C(=O)N[C@H](C(=O)N[C@H]3C(=O)NCC(=O)N[C@@H](C)C(=O)N[C@@H](CC(C)C)C(=O)N[C@@H](CCC(N)=O)C(=O)N/C(=C\C)C(=O)N[C@H](C(=O)N[C@@H](Cc4ccccc4)C(=O)N[C@@H](CC(C)C)C(=O)N[C@@H](CCC(N)=O)C(=O)N[C@H]4C(=O)N[C@@H](CC(C)C)C(=O)N[C@H]5C(=O)N[C@@H](CS[C@H]4C)C(=O)N[C@@H](CC(N)=O)C(=O)N[C@H](C(=O)N[C@@H](CCCCN)C(=O)O)CS[C@H]5C)CS[C@H]3C)C(C)C)CS[C@H]2C)NC(=O)[C@H](CC(C)C)NC1=O
11.5 (≈ 3.82 µM) | – | C=C1NC(=O)CC[C@@H](C(=O)O)NC(=O)[C@H](NC(=O)[C@H](CCCCN)NC(=O)[C@@H](N)Cc2c[nH]c3ccccc23)CSC[C@@H](C(=O)N[C@@H]2C(=O)N3CCC[C@H]3C(=O)NCC(=O)N[C@H](C(=O)N[C@H](C(=O)N[C@@H]3C(=O)NCC(=O)N[C@@H](C)C(=O)N[C@@H](CC(C)C)C(=O)N[C@@H](CCC(N)=O)C(=O)N/C(=C/C)C(=O)N[C@H](C(=O)N[C@@H](Cc4ccccc4)C(=O)N[C@@H](CC(C)C)C(=O)N[C@@H](CCC(N)=O)C(=O)N[C@@H]4C(=O)N[C@@H](CC(C)C)C(=O)N[C@H]5C(=O)N[C@@H](CSC4C)C(=O)NC(=O)[C@H](CC(N)=O)N[C@H](C(=O)N[C@@H](CCCCN)C(=O)O)CSC5C)CSC3C)C(C)C)CSC2C)N[C@@H](CC(C)C)C(=O)NC1=O (stereo not given in full)
19.2 (≈ 5.6 µM) | – | C=C(NC(=O)[C@@H](NC(=O)[C@H](CCCCN)NC(=O)[C@@H]1CS[C@@H](C)[C@H]2NC(=O)[C@H](CC(C)C)NC(=O)[C@H](NC(=O)[C@H](CCC(N)=O)NC(=O)[C@H](CC(C)C)NC(=O)[C@H](Cc3ccccc3)NC(=O)[C@@H]3CS[C@@H](C)[C@@H](NC(=O)[C@@H](NC(=O)[C@@H]4CS[C@@H](C)[C@@H](NC(=O)[C@@H]5CSC[C@@H](NC(=O)[C@H](CCCCN)NC(=O)[C@H](Cc6c[nH]c7ccccc67)NC(=O)CCC(=O)O)C(=O)N[C@@H](CCC(=O)O)C(=O)NC(=C)C(=O)N[C@@H](CC(C)C)C(=O)N5)C(=O)N5CCC[C@H]5C(=O)NCC(=O)N4)C(C)C)C(=O)NCC(=O)N[C@@H](C)C(=O)N[C@@H](CC(C)C)C(=O)N[C@@H](CCC(N)=O)C(=O)N/C(=C\C)C(=O)N3)[C@H](C)SC[C@H](NC2=O)C(=O)N[C@@H](CC(N)=O)C(=O)N1)[C@@H](C)CC)C(=O)N[C@@H](CCCCN)C(=O)O
– | 20 | C=C(NC(=O)[C@@H](NC(=O)[C@H](CCCCN)NC(=O)[C@@H]1CS[C@@H](C)[C@H]2NC(=O)[C@H](CC(C)C)NC(=O)[C@H](NC(=O)[C@H](CCC(N)=O)NC(=O)[C@H](CC(C)C)NC(=O)[C@H](Cc3ccccc3)NC(=O)[C@@H]3CS[C@@H](C)[C@@H](NC(=O)[C@@H](NC(=O)[C@@H]4CS[C@@H](C)[C@@H](NC(=O)[C@@H]5CSC[C@@H](NC(=O)[C@H](CCCCN)NC(=O)[C@@H](N)Cc6c[nH]c7ccccc67)C(=O)N[C@@H](CCC(=O)O)C(=O)NC(=C)C(=O)N[C@@H](CC(C)C)C(=O)N5)C(=O)N5CCC[C@H]5C(=O)NCC(=O)N4)C(C)C)C(=O)NCC(=O)N[C@@H](C)C(=O)N[C@@H](CC(C)C)C(=O)N[C@@H](CCC(N)=O)C(=O)N/C(=C\C)C(=O)N3)[C@H](C)SC[C@H](NC2=O)C(=O)N[C@@H](CC(N)=O)C(=O)N1)[C@@H](C)CC)C(=O)N[C@@H](CCCCN)C(=O)O [SUBTILIN]
1.13 (≈ 0.34 µM) | – | C=C1NC(=O)CC[C@@H](C(=O)O)NC(=O)[C@H](NC(=O)[C@H](CCCCN)NC(=O)[C@@H](N)Cc2c[nH]c3ccccc23)CSC[C@@H](C(=O)N[C@@H]2C(=O)N3CCC[C@H]3C(=O)NCC(=O)N[C@H](C(=O)N[C@H](C(=O)N[C@@H]3C(=O)NCC(=O)N[C@@H](C)C(=O)N[C@@H](CC(C)C)C(=O)N[C@@H](CCC(N)=O)C(=O)N/C(=C/C)C(=O)N[C@H](C(=O)N[C@@H](Cc4ccccc4)C(=O)N[C@@H](CC(C)C)C(=O)N[C@@H](CCC(N)=O)C(=O)N[C@@H]4C(=O)N[C@@H](CC(C)C)C(=O)N[C@H]5C(=O)N[C@@H](CSC4C)C(=O)NC(=O)[C@H](CC(N)=O)N[C@H](C(=O)N[C@@H](CCCCN)C(=O)N[C@H](C(=O)NC(=C)C(=O)N[C@@H](CCCCN)C(=O)O)[C@@H](C)CC)CSC5C)CSC3C)C(C)C)CSC2C)N[C@@H](CC(C)C)C(=O)NC1=O (stereo not given in full) [SUBTILIN]
